Tests used:
[1] = target: ABL1 (Y253F) phosphorylated (Homo sapiens, UniProt P00519, Y253F); assay: KINOMEscan binding assay; settings: read-out: % Ctrl @ 10000 nM
ACVR2A = ACVR2A (Homo sapiens, UniProt P27037); assay: KINOMEscan binding assay; settings: read-out: % Ctrl @ 10000 nM
ADCK3 = ADCK3 (Homo sapiens, UniProt Q8NI60); assay: KINOMEscan binding assay; settings: read-out: % Ctrl @ 10000 nM
ALK = ALK (Homo sapiens, UniProt Q9UM73); assay: KINOMEscan binding assay; settings: read-out: % Ctrl @ 10000 nM
ARK5 = ARK5 (Homo sapiens, UniProt O60285); assay: KINOMEscan binding assay; settings: read-out: % Ctrl @ 10000 nM
CDKL5 = CDKL5 (Homo sapiens, UniProt O76039); assay: KINOMEscan binding assay; settings: read-out: % Ctrl @ 10000 nM
GSK3A = GSK3A (Homo sapiens, UniProt P49840); assay: KINOMEscan binding assay; settings: read-out: % Ctrl @ 10000 nM
IRAK3 = IRAK3 (Homo sapiens, UniProt Q9Y616); assay: KINOMEscan binding assay; settings: read-out: % Ctrl @ 10000 nM
IRAK4 = IRAK4 (Homo sapiens, UniProt Q9NWZ3); assay: KINOMEscan binding assay; settings: read-out: % Ctrl @ 10000 nM
KIT (V559D) = KIT (V559D) (Homo sapiens, UniProt P10721, V559D); assay: KINOMEscan binding assay; settings: read-out: % Ctrl @ 10000 nM
MUSK = MUSK (Homo sapiens, UniProt O15146); assay: KINOMEscan binding assay; settings: read-out: % Ctrl @ 10000 nM
PDPK1 = PDPK1 (Homo sapiens, UniProt O15530); assay: KINOMEscan binding assay; settings: read-out: % Ctrl @ 10000 nM
PIK3CA (I800L) = PIK3CA (I800L) (Homo sapiens, UniProt P42336, I800L); assay: KINOMEscan binding assay; settings: read-out: % Ctrl @ 10000 nM
PRKCE = PRKCE (Homo sapiens, UniProt Q02156); assay: KINOMEscan binding assay; settings: read-out: % Ctrl @ 10000 nM
ROS1 = ROS1 (Homo sapiens, UniProt P08922); assay: KINOMEscan binding assay; settings: read-out: % Ctrl @ 10000 nM
SIK2 = SIK2 (Homo sapiens, UniProt Q9H0K1); assay: KINOMEscan binding assay; settings: read-out: % Ctrl @ 10000 nM
STK39 = STK39 (Homo sapiens, UniProt Q9UEW8); assay: KINOMEscan binding assay; settings: read-out: % Ctrl @ 10000 nM
WNK1 = target: T1, WNK1 (Homo sapiens, UniProt Q9H4A3); assay: KINOMEscan binding assay; settings: read-out: % Ctrl @ 10000 nM
T1 construct: purchased DiscoveRx (KINOMEscan, LeadHunter Discovery services)

ABL2/ARG = ABL2/ARG (Homo sapiens, UniProt P42684); assay: Kinase selectivity, % remaining activity; type: biochemical; settings: 10 μM compound, 10 μM ATP, duplicate; for remaining activity at 10 µM: read-out: % of remaining activity (relative to DMSO)
Summary of the method: (§1)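 Read-out is percent of kinase activity remaining compared with vehicle (DMSO). Testing used one dose, 10 μM, in duplicate at 10 μM ATP.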

ALK5/TGFBR1 = target: T2, ALK5/TGFBR1 (Homo sapiens, UniProt P36897); assay: Kinase selectivity, % remaining activity; type: biochemical; settings: 10 μM compound, 10 μM ATP, duplicate; for remaining activity at 10 µM: read-out: % of remaining activity (relative to DMSO)
T2 sequence (P36897 34-503): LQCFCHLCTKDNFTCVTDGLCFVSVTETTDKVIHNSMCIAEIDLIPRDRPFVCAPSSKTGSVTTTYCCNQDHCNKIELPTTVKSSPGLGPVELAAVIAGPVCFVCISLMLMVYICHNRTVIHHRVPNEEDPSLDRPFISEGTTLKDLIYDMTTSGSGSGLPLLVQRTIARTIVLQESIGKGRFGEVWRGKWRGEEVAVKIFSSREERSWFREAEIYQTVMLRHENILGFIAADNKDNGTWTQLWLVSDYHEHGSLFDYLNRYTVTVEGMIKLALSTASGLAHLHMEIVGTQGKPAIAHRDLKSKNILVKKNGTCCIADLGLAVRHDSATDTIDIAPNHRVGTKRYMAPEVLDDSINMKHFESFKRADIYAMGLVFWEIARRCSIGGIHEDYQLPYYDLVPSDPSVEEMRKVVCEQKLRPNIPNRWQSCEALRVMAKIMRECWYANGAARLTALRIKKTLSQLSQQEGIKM
Summary of the method: as §1

CDK5/p25 = CDK5/p25 (Homo sapiens, UniProt Q00535); assay: Kinase selectivity, % remaining activity; type: biochemical; settings: 10 μM compound, 10 μM ATP, duplicate; for remaining activity at 10 µM: read-out: % of remaining activity (relative to DMSO)
Summary of the method: as §1

CK1g2 = CK1g2 (Homo sapiens, UniProt P78368); assay: Kinase selectivity, % remaining activity; type: biochemical; settings: 10 μM compound, 10 μM ATP, duplicate; for remaining activity at 10 µM: read-out: % of remaining activity (relative to DMSO)
Summary of the method: as §1

CLK2 = CLK2 (Homo sapiens, UniProt P49760); assay: Kinase selectivity, % remaining activity; type: biochemical; settings: 10 μM compound, 10 μM ATP, duplicate; for remaining activity at 10 µM: read-out: % of remaining activity (relative to DMSO)
Summary of the method: as §1

EGFR = EGFR (Homo sapiens, UniProt P00533); assay: Kinase selectivity, % remaining activity; type: biochemical; settings: 10 μM compound, 10 μM ATP, duplicate; for remaining activity at 10 µM: read-out: % of remaining activity (relative to DMSO)
Summary of the method: as §1

KDR/VEGFR2 = KDR/VEGFR2 (Homo sapiens, UniProt P35968); assay: Kinase selectivity, % remaining activity; type: biochemical; settings: 10 μM compound, 10 μM ATP, duplicate; for remaining activity at 10 µM: read-out: % of remaining activity (relative to DMSO)
Summary of the method: as §1

PIM3 = PIM3 (Homo sapiens, UniProt Q86V86); assay: Kinase selectivity, % remaining activity; type: biochemical; settings: 10 μM compound, 10 μM ATP, duplicate; for remaining activity at 10 µM: read-out: % of remaining activity (relative to DMSO)
Summary of the method: as §1

ROCK1 = ROCK1 (Homo sapiens, UniProt Q13464); assay: Kinase selectivity, % remaining activity; type: biochemical; settings: 10 μM compound, 10 μM ATP, duplicate; for remaining activity at 10 µM: read-out: % of remaining activity (relative to DMSO)
Summary of the method: as §1

TNIK = TNIK (Homo sapiens, UniProt Q9UKE5); assay: Kinase selectivity, % remaining activity; type: biochemical; settings: 10 μM compound, 10 μM ATP, duplicate; for remaining activity at 10 µM: read-out: % of remaining activity (relative to DMSO)
Summary of the method: as §1

[2] = target: CK1d (casein kinase 1 delta) (Homo sapiens, UniProt P48730); assay: Kinase selectivity, % remaining activity and IC50; type: biochemical; settings: 10 μM ATP; for % of remaining activity (relative to DMSO) / remaining activity at 10 µM: CK1d, 10 μM compound, duplicate; for remaining activity at 10 µM: read-out: % of remaining activity (relative to DMSO); for IC50: casein kinase 1 delta, 10-dose, 3 fold serial dilution
Experimental: A two-tier strategy to determine the selectivity of compound A was applied: first, the compound was tested at a single concentration (in duplicate) to determine the %-remaining activity of the target kinase. Subsequently, the IC50 of compound A and comparative compounds for casein kinase 1 delta were determined.
Compounds were tested in single dose duplicate mode at a concentration of 10 μM (in DMSO) and reactions were carried out at 10 μM ATP, Table 3 reports the % of remaining activity (relative to DMSO).
Control compound GW5074 (Tocris®) was tested starting at 20 μM. Reactions were carried out at 10 μM ATP.

DAPK1 = DAPK1 (Homo sapiens, UniProt P53355); assay: Kinase selectivity, % remaining activity; type: biochemical; settings: 10 μM compound, 10 μM ATP, duplicate
Summary of the method: as §1

Sequence of EGFR (P00533 25-1210): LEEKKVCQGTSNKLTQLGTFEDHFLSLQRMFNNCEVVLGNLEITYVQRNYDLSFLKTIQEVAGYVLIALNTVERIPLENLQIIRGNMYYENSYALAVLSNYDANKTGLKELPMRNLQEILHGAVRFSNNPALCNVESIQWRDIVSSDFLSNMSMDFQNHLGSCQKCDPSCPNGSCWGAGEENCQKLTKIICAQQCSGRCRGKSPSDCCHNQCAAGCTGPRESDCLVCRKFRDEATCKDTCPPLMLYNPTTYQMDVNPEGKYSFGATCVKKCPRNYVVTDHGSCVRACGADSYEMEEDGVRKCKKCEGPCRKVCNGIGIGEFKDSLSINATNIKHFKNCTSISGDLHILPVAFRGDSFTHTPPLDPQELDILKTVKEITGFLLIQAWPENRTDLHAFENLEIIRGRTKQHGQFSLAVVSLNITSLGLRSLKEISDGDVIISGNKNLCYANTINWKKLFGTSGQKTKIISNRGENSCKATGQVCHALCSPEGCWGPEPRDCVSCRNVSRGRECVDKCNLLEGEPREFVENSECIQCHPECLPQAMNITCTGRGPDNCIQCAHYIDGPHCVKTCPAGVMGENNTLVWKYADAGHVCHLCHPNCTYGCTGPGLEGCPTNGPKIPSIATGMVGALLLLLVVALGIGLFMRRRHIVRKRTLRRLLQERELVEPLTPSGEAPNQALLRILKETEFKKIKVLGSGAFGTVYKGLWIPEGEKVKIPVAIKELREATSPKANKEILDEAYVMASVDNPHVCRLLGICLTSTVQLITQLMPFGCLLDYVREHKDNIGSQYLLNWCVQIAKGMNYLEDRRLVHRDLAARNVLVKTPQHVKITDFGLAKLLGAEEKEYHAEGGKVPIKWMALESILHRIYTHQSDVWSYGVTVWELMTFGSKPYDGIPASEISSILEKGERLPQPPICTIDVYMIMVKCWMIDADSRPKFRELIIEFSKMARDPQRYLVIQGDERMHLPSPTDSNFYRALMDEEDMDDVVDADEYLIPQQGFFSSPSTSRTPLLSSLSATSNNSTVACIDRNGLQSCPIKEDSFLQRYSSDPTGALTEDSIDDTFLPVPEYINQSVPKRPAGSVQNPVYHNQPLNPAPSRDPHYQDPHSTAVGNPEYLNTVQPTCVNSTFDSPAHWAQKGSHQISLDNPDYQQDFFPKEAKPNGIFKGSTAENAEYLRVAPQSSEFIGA
Sequence of CK1g2 (P78368 whole entry, species assumed): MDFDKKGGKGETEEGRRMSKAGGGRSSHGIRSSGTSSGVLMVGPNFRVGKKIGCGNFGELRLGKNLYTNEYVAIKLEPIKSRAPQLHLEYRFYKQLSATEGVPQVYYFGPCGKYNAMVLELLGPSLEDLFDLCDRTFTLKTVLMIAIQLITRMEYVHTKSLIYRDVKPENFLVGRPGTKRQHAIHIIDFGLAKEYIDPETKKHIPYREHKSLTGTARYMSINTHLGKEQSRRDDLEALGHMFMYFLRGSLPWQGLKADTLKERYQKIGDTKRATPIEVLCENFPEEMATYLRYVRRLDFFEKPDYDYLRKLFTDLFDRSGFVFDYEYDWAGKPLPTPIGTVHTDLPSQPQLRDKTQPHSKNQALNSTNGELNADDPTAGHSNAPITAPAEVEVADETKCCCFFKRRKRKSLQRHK
Sequence of CDK5/p25 (Q00535 whole entry, species assumed): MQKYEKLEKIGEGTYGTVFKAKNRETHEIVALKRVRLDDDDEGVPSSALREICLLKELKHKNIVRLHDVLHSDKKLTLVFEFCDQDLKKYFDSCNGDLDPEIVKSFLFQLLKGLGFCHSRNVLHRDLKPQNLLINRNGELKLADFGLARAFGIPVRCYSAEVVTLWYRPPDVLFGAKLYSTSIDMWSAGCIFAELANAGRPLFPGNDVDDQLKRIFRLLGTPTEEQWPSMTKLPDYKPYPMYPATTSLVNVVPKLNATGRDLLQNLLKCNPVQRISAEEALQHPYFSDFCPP
Sequence of ABL2/ARG (P42684 whole entry): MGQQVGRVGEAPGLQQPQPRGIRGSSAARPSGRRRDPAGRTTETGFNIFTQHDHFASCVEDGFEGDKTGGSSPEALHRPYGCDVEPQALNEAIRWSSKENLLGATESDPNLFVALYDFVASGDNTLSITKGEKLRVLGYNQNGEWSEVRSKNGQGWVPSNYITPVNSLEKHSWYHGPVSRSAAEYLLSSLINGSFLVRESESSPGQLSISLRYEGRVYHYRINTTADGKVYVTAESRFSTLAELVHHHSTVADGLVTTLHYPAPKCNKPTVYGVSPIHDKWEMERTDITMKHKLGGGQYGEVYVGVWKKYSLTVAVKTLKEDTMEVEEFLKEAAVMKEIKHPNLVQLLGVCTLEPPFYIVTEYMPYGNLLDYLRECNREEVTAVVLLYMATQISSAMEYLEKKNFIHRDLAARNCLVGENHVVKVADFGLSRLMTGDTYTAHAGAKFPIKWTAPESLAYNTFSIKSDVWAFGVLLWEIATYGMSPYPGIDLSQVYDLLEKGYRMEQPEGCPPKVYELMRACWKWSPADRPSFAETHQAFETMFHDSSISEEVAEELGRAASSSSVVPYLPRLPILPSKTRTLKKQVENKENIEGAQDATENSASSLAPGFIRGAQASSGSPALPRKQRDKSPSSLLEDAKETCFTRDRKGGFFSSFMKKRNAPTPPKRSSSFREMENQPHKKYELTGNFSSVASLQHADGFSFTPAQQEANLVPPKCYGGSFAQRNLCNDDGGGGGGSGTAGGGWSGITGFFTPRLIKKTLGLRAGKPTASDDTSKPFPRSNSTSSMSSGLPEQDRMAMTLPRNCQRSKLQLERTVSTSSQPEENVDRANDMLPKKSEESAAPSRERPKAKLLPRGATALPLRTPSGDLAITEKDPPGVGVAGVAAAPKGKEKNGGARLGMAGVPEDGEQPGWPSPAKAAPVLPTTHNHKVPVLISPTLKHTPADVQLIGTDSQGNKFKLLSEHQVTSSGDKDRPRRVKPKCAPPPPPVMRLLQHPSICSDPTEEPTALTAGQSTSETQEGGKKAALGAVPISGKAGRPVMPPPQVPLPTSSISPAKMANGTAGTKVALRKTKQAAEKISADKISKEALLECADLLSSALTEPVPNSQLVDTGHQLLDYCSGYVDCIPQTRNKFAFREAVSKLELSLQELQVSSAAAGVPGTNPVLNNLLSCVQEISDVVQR
Sequence of ROCK1 (Q13464 whole entry): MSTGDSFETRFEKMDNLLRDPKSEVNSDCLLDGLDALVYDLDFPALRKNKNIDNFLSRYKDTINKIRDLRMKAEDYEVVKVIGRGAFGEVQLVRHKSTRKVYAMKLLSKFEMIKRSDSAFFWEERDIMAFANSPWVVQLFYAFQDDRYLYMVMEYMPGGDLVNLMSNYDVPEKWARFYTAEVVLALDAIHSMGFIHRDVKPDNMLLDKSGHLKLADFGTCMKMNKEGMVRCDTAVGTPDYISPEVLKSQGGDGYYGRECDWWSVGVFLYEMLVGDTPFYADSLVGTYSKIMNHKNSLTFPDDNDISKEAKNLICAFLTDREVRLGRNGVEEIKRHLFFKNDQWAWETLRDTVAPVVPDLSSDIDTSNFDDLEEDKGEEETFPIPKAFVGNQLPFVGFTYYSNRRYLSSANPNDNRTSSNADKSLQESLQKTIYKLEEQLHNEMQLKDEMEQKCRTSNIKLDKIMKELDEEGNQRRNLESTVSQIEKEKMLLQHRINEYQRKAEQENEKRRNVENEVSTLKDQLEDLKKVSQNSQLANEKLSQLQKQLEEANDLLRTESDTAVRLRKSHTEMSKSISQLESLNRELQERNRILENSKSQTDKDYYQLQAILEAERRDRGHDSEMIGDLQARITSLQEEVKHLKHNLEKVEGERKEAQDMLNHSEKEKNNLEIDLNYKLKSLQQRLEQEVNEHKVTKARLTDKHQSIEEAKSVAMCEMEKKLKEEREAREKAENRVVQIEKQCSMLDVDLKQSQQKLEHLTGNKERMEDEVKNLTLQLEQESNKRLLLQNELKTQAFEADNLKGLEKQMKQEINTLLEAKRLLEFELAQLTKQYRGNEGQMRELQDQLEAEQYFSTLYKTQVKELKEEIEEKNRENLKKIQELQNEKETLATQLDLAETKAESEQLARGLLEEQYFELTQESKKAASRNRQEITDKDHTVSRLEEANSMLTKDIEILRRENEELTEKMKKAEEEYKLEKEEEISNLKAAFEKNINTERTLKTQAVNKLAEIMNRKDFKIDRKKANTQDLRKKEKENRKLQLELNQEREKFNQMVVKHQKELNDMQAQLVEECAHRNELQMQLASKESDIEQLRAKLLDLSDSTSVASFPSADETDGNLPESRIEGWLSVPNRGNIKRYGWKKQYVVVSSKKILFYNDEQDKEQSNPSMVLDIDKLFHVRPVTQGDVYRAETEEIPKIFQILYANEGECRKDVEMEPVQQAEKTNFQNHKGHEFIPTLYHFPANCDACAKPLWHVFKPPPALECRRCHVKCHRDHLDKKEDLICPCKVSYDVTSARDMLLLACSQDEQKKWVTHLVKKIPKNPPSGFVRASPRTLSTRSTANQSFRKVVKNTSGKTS

## Nc1ncc(-c2nc3ccccc3o2)c(-c2ccncc2)n1 [Comparative Compound 324, 5-(1,3-benzoxazol-2-yl)-4-(pyridine-4-yl)pyrimidin-2-amine]
[1]
  remaining binding at 10 µM: 78%
ACVR2A
  remaining binding at 10 µM: 100%
ADCK3
  remaining binding at 10 µM: 88%
ALK
  remaining binding at 10 µM: 89%
ARK5
  remaining binding at 10 µM: 100%
CDKL5
  remaining binding at 10 µM: 97%
GSK3A
  remaining binding at 10 µM: 86%
IRAK3
  remaining binding at 10 µM: 90%
IRAK4
  remaining binding at 10 µM: 100%
KIT (V559D)
  remaining binding at 10 µM: 69%
MUSK
  remaining binding at 10 µM: 100%
PDPK1
  remaining binding at 10 µM: 100%
PIK3CA (I800L)
  remaining binding at 10 µM: 52%
PRKCE
  remaining binding at 10 µM: 95%
ROS1
  remaining binding at 10 µM: 100%
SIK2
  remaining binding at 10 µM: 100%
STK39
  remaining binding at 10 µM: 100%
WNK1
  remaining binding at 10 µM: 81%
ABL2/ARG; listed as Cmp 324
  % of remaining activity (relative to DMSO): 96.78%
ABL2/ARG
  remaining activity at 10 µM: 101%
ALK5/TGFBR1; listed as Cmp 324
  % of remaining activity (relative to DMSO): 101.71%
ALK5/TGFBR1
  remaining activity at 10 µM: 105%
CDK5/p25; listed as Cmp 324
  % of remaining activity (relative to DMSO): 97.13%
CDK5/p25
  remaining activity at 10 µM: 87.7%
CK1g2; listed as Cmp 324
  % of remaining activity (relative to DMSO): 58.69%
CK1g2
  remaining activity at 10 µM: 58%
CLK2; listed as Cmp 324
  % of remaining activity (relative to DMSO): 92.16%
CLK2
  remaining activity at 10 µM: 96.2%
EGFR; listed as Cmp 324
  % of remaining activity (relative to DMSO): 79.83%
EGFR
  remaining activity at 10 µM: 83.8%
KDR/VEGFR2; listed as Cmp 324
  % of remaining activity (relative to DMSO): 100.01%
KDR/VEGFR2
  remaining activity at 10 µM: 85.1%
PIM3; listed as Cmp 324
  % of remaining activity (relative to DMSO): 95.35%
PIM3
  remaining activity at 10 µM: 100%
ROCK1; listed as Cmp 324
  % of remaining activity (relative to DMSO): 109.68%
ROCK1
  remaining activity at 10 µM: 109%
TNIK; listed as Cmp 324
  % of remaining activity (relative to DMSO): 65.72%
TNIK
  remaining activity at 10 µM: 74.6%
[2]; listed as Cmp 324
  % of remaining activity (relative to DMSO): 11.87%
[2]
  remaining activity at 10 µM: 13.3%
  IC50: 483 nM

## CNc1c(C(N)=O)c2ccccn2c1C(=O)c1ccc(F)cc1 [Compound A, 2-methyl-amino-3-[(4-fluorophenyl)carbonyl]indolizine-1-carboxamide]
[1]
  remaining binding at 10 µM: 50%
ACVR2A
  remaining binding at 10 µM: 98%
ADCK3
  remaining binding at 10 µM: 91%
ALK
  remaining binding at 10 µM: 90%
ARK5
  remaining binding at 10 µM: 85%
CDKL5
  remaining binding at 10 µM: 94%
GSK3A
  remaining binding at 10 µM: 56%
IRAK3
  remaining binding at 10 µM: 60%
IRAK4
  remaining binding at 10 µM: 98%
KIT (V559D)
  remaining binding at 10 µM: 19%
MUSK
  remaining binding at 10 µM: 96%
PDPK1
  remaining binding at 10 µM: 92%
PIK3CA (I800L)
  remaining binding at 10 µM: 72%
PRKCE
  remaining binding at 10 µM: 96%
ROS1
  remaining binding at 10 µM: 100%
SIK2
  remaining binding at 10 µM: 59%
STK39
  remaining binding at 10 µM: 81%
WNK1
  remaining binding at 10 µM: 69%
ABL2/ARG; listed as Cmp A
  % of remaining activity (relative to DMSO): 70.98%
ABL2/ARG
  remaining activity at 10 µM: 71.3%
ALK5/TGFBR1; listed as Cmp A
  % of remaining activity (relative to DMSO): 109.38%
ALK5/TGFBR1
  remaining activity at 10 µM: 110%
CDK5/p25; listed as Cmp A
  % of remaining activity (relative to DMSO): 88.62%
CDK5/p25
  remaining activity at 10 µM: 90.2%
CK1g2; listed as Cmp A
  % of remaining activity (relative to DMSO): 99.83%
CK1g2
  remaining activity at 10 µM: 95.5%
CLK2; listed as Cmp A
  % of remaining activity (relative to DMSO): 105.40%
CLK2
  remaining activity at 10 µM: 100%
DAPK1; listed as Cmp A
  % of remaining activity (relative to DMSO): 124.50%
DAPK1; read-out: % of remaining activity (relative to DMSO)
  remaining activity at 10 µM: 134%
EGFR; listed as Cmp A
  % of remaining activity (relative to DMSO): 52.51%
EGFR
  remaining activity at 10 µM: 55.8%
KDR/VEGFR2; listed as Cmp A
  % of remaining activity (relative to DMSO): 109.28%
KDR/VEGFR2
  remaining activity at 10 µM: 111%
PIM3; listed as Cmp A
  % of remaining activity (relative to DMSO): 119.96%
PIM3
  remaining activity at 10 µM: 125%
ROCK1; listed as Cmp A
  % of remaining activity (relative to DMSO): 96.14%
ROCK1
  remaining activity at 10 µM: 95.5%
TNIK; listed as Cmp A
  % of remaining activity (relative to DMSO): 94.12%
TNIK
  remaining activity at 10 µM: 94.4%
[2]; listed as Cmp A
  % of remaining activity (relative to DMSO): 0.98%
[2]
  remaining activity at 10 µM: 1.15%
  IC50: 17.4 nM
